Read-outs that look alike come from different tables or passages of the source.
Legend:
[1] = test system: SCD1; experiment: Measurement of SCD1 expression in SZ95-SCD1-HiBit cells (HiBiT assay); format: cell-based; details: Homo sapiens, 48 h; for EC50: SCD1 protein production, luminescence, initial dilution 1:3 in DMSO, read-out: HiBit EC50
Description: Measurement of SCD1 Expression in SZ95-SCD1-HiBit Cells
SCD1 expression levels in SZ95 cells were quantitated using the HiBiT system (Promega) in which a small peptide sequence (SmBiT) with a larger protein (LgBiT) reconstitutes luciferase activity and can generate a luminescent signal used for quantitation. SZ95-SCD1-HiBit cells were generated by editing the SCD1 gene of SZ95 cells resulting in the addition of an 8 amino acid linker sequence (gssggssg, SEQ ID NO:1) followed by an 11-amino acid SmBiT sequence (vsgwrlfkkis, SEQ ID NO:2) at the carboxy-terminus of the SCD1 protein. The gRNA targeting sequence used was […] (SEQ ID NO: 3) and the SCD1 insertion oligonucleotide encoding the SmBiT sequence was:
SZ95-SCD1-HiBit cells were seeded in 384-well cell culture white plates at a density of 3000 cells/30 μl. Water was added to edge wells to avoid evaporation. Cells were incubated in a humidified incubator with 5% CO2 at 37° C. overnight. Tested compounds were diluted at a ratio of 1:3 in DMSO using an Agilent BRAVO Automated Liquid Handling Platform and, after further serial dilutions, added to cells at final concentrations starting from 18 μM. 2-(3-(3-((2-chloro-3-(trifluoromethyl)benzyl)(2,2-diphenylethyl)amino)propoxy)phenyl)acetic acid was used as a reference compound in each plate. Cells in the assay plate were incubated in a humidified incubator with 5% CO2 at 37° C. for 48 h.
The assay plates were removed from the incubator and allowed to equilibrate to room temperature. Nano-Glo® HiBiT Detection Reagent (Promega; a mixture of Nano-Glo HiBiT Detection Buffer, Nano-Glo HiBiT Detection Substrate, and LgBiT protein, according to the manufacturer's instructions) was added into assay plates, at a volume equal to cell culture medium in each well. Plates were placed on an orbital shaker at a speed of 300-600 rpm for 10 min at room temperature, and read on an EnVision Plate Reader using luminescence detection with a 1 second read time.
The assay measures the increase in SCD1 protein production in vitro. Amax refers to the percent EC50 of the tested compound compared to a reference compound, 2-(3-(3-((2-chloro-3-(trifluoromethyl)benzyl)(2,2-diphenylethyl)amino)propoxy)phenyl)acetic acid.

[2] = test system: SZ95 sebocytes; experiment: Sentinel Lipid Assay (SLA), desaturation index in SZ95 sebocytes; format: cell-based; details: Homo sapiens, 72 h; for EC50: desaturation index, lowest dose used 4.6 nM, read-out: SLA EC50
Method: Sentinel Lipid Assay (SLA)
The sentinel lipid assay was used quantify the change in the global desaturation index in SZ95 sebocytes upon administration of certain LXR agonist compounds provided herein. The assay measures a smaller subset of lipid analytes in meibum (termed “sentinel lipids”) which would model the global changes the population of both saturated and desaturated lipids in the cells. In order to define this smaller subset of lipids, a complete lipid profile was recorded on dose response curves (eight levels from 4 nM to 10 uM) of Compounds 1-72. An elastic net regression model was applied separately to both the saturated and desaturated lipids to determine the minimum combination of coefficients and analytes, which could be used to adequately model the total population of lipids. The elastic net model was able to reduce the behavior of 425 lipids to 11 lipids and the correlation between the desaturation indices observed using the complete set of lipids with from the 11 sentinel lipids was 0.96.
A medium throughput assay was created using this reduced set of sentinel lipids. A single batch is defined as triplicate examples of three unique plates (i.e., a single batch of cells is used to create nine plates for LC-MSMS analysis). Lipids were extracted from the cells using a 1:1 mixture of methylene chloride/methanol containing 10 nM of deuterated standards of triglycerides, which are used as internal standards for quantitating the lipid abundance. The lipids were separated prior to mass spectrometric analysis using a five minute HPLC gradient. The abundance of the sentinel lipids and the internal standards are measured using multiple reaction monitor mode (MRM) on a triple quadrupole mass spectrometer. The data was transformed from total ion current to nmoles/10^6 cells, which are multiplied by the coefficients from the elastic net model to determine the effective desaturated and saturated content, and therein the desaturation index of the dosed cells. In order to compare compounds from multiple batches with one another, the measure raw desaturation index was normalized by dividing it by the desaturation index of the DMSO dosed cells, and all data was assessed as the fraction by which the compound increases the desaturation index above 1.
SZ95 (immortalized human sebaceous gland cells) cells were seeded in Greiner bio-one 96-well polypropylene plates that were pre-treated with 50 μg/mL Human Plasma Fibronectin (Thermo Fisher Scientific) at a density of 10^4 cells/135 μl. Cells were incubated in a humidified incubator with 5% CO2 at 37° C. overnight. Test compounds were diluted at a ratio of 1:3 and added to cells at final concentrations starting from 10 μM. 2-(3-(3-((2-chloro-3-(trifluoromethyl)benzyl)(2,2-diphenylethyl)amino)propoxy)phenyl)acetic acid was used as a positive control reference compound in each plate. Cells in the assay plate were incubated in a humidified incubator with 5% CO2 at 37° C. for 72 h.
Culture medium was removed from the cells and cells in culture plates were washed with ice cold phosphate buffered saline three times. Plates were heat sealed and stored in a −80° C. freezer prior to Sentinel lipid assay. The Amax value refers to the percent EC50 of the tested compound compared to a reference compound, 2-(3-(3-((2-chloro-3-(trifluoromethyl)benzyl)(2,2-diphenylethyl)amino)propoxy)phenyl)acetic acid.

[3] = normalized Amax based on the reference compound Amax of 100%, read-out: HiBit Normalized Amax
[4] = SZ95-SCD1-HiBit cells, compared to reference compound, read-out: HiBit Amax
[5] = normalized Amax based on the reference compound Amax of 100%, read-out: SLA Normalized Amax
[6] = SZ95 cells, compared to reference compound, read-out: SLA Amax

| EC50 ([1]; SZ95-SCD1-HiBit cells) [nM] | EC50 ([2]; SZ95 cells) [nM] | SMILES | Emax [1, 3] [%] | Emax [1, 4] [%] | Emax [2, 5] [%] | Emax [2, 6] [%] |
| --- | --- | --- | --- | --- | --- | --- |
| 0.056 | ≤ 4.6 | CC(C)N(C)S(=O)(=O)c1ccccc1Oc1ccc(-c2noc(CN3C(=O)N(CCC4CCOCC4)C(C)(C)C3=O)n2)cc1C(F)(F)F [Compound 5, 2-(4-(5-((4,4-dimethyl-2,5-dioxo-3-(2-(tetrahydro-2H-pyran-4-yl)ethyl)imidazolidin-1-yl)methyl)-1,2,4-oxadiazol-3-yl)-2-(trifluoromethyl)phenoxy)-N-isopropyl-N-methylbenzenesulfonamide] | 87.7 | 83.4 | 152 | 146 |
| 43.6 | 37.5 | CC(C)CS(=O)(=O)c1ccccc1Oc1ccc(-c2noc(CN3C(=O)N(CCC4(O)CCOCC4)C(C)(C)C3=O)n2)cc1C(F)(F)F [Compound 6, 1-(2-(4-hydroxytetrahydro-2H-pyran-4-yl)ethyl)-3-((3-(4-(2-(isobutylsulfonyl)phenoxy)-3-(trifluoromethyl)phenyl)-1,2,4-oxadiazol-5-yl)methyl)-5,5-dimethylimidazolidine-2,4-dione] | 69.8 | 66.4 | 101 | 96.7 |
| 0.128 | ≤ 4.6 | CC(C)(C)c1ccccc1Oc1ccc(-c2noc(CN3C(=O)N(CCC4CCOCC4)C4(CCN(C5CCC5)CC4)C3=O)n2)cc1C(F)(F)F [Compound 7, 3-((3-(4-(2-(tert-butyl)phenoxy)-3-(trifluoromethyl)phenyl)-1,2,4-oxadiazol-5-yl)methyl)-8-cyclobutyl-1-(2-(tetrahydro-2H-pyran-4-yl)ethyl)-1,3,8-triazaspiro[4.5]decane-2,4-dione] | 90 | 85.6 | 110 | 105 |
| 3.3 | ≤ 4.6 | CC(C)CS(=O)(=O)c1ccccc1Oc1ccc(-c2noc(CN3C(=O)N(CCN4CCOCC4)C4(CCNCC4)C3=O)n2)cc1C(F)(F)F [Compound 9, 3-((3-(4-(2-(isobutylsulfonyl)phenoxy)-3-(trifluoromethyl)phenyl)-1,2,4-oxadiazol-5-yl)methyl)-1-(2-morpholinoethyl)-1,3,8-triazaspiro[4.5]decane-2,4-dione] | 98.1 | 93.3 | 147 | 142 |
| 0.079 | ≤ 4.6 | CC(C)CS(=O)(=O)c1ccccc1Oc1ccc(-c2noc(CN3C(=O)N(CCN4CCOCC4)C4(CCN(C)CC4)C3=O)n2)cc1C(F)(F)F [Compound 10, 3-((3-(4-(2-(isobutylsulfonyl)phenoxy)-3-(trifluoromethyl)phenyl)-1,2,4-oxadiazol-5-yl)methyl)-8-methyl-1-(2-morpholinoethyl)-1,3,8-triazaspiro[4.5]decane-2,4-dione] | 111 | 106 | 129 | 124 |
| 0.058 | ≤ 4.6 | CC(C)N(C)S(=O)(=O)c1ccccc1Oc1ccc(-c2noc(CN3C(=O)N(CCN4CCOCC4)C4(CCN(C5CCC5)CC4)C3=O)n2)cc1C(F)(F)F [Compound 11, 2-(4-(5-((8-cyclobutyl-1-(2-morpholinoethyl)-2,4-dioxo-1,3,8-triazaspiro[4.5]decan-3-yl)methyl)-1,2,4-oxadiazol-3-yl)-2-(trifluoromethyl)phenoxy)-N-isopropyl-N-methylbenzenesulfonamide] | 95.9 | 91.2 | 140 | 134 |
| 0.081 | ≤ 4.6 | O=C1N(Cc2nc(-c3ccc(Oc4ccccc4C(F)(F)F)c(C(F)(F)F)c3)no2)C(=O)C2(CCN(C3CCC3)CC2)N1CCC1CCOCC1 [Compound 12, 8-cyclobutyl-1-(2-(tetrahydro-2H-pyran-4-yl)ethyl)-3-((3-(3-(trifluoromethyl)-4-(2-(trifluoromethyl)phenoxy)phenyl)-1,2,4-oxadiazol-5-yl)methyl)-1,3,8-triazaspiro[4.5]decane-2,4-dione] | 81.9 | 77.9 | 130 | 125 |
| 0.102 | ≤ 4.6 | O=C1N(Cc2nc(-c3ccc(Oc4ccccc4C(F)(F)F)c(C(F)(F)F)c3)no2)C(=O)C2(CCN(C3CCC3)CC2)N1CCN1CCOCC1 [Compound 13, 8-cyclobutyl-1-(2-morpholinoethyl)-3-((3-(3-(trifluoromethyl)-4-(2-(trifluoromethyl)phenoxy)phenyl)-1,2,4-oxadiazol-5-yl)methyl)-1,3,8-triazaspiro[4.5]decane-2,4-dione] | 82.2 | 78.2 | 94.5 | 90.7 |
| 0.241 | ≤ 4.6 | CC(COc1ccc(-c2noc(CN3C(=O)N(CCN4CCOCC4)C4(CCN(C5CCC5)CC4)C3=O)n2)cc1C(F)(F)F)(C(F)(F)F)C(F)(F)F [Compound 14, 8-cyclobutyl-1-(2-morpholinoethyl)-3-((3-(4-(3,3,3-trifluoro-2-methyl-2-(trifluoromethyl)propoxy)-3-(trifluoromethyl)phenyl)-1,2,4-oxadiazol-5-yl)methyl)-1,3,8-triazaspiro[4.5]decane-2,4-dione] | 91 | 86.5 | 130 | 125 |
| 0.101 | ≤ 4.6 | CS(=O)(=O)c1ccccc1Oc1ccc(-c2noc(CN3C(=O)N(CCN4CCOCC4)C4(CCN(C5CCC5)CC4)C3=O)n2)cc1C(F)(F)F [Compound 15, 8-cyclobutyl-3-((3-(4-(2-(methylsulfonyl)phenoxy)-3-(trifluoromethyl)phenyl)-1,2,4-oxadiazol-5-yl)methyl)-1-(2-morpholinoethyl)-1,3,8-triazaspiro[4.5]decane-2,4-dione] | 88.3 | 84 | 121 | 116 |
| 0.116 | ≤ 4.6 | CC(C)(C)c1ccccc1Oc1ccc(-c2noc(CN3C(=O)N(CCN4CCOCC4)C4(CCN(C5CCC5)CC4)C3=O)n2)cc1C(F)(F)F [Compound 16, 3-((3-(4-(2-(tert-butyl)phenoxy)-3-(trifluoromethyl)phenyl)-1,2,4-oxadiazol-5-yl)methyl)-8-cyclobutyl-1-(2-morpholinoethyl)-1,3,8-triazaspiro[4.5]decane-2,4-dione] | 94.8 | 90.2 | 146 | 140 |

Reference: US11427586B2, “1,2,4-oxadiazole derivatives as liver X receptor agonists” (NOVARTIS AG, priority 2019, dated 2022)
